Results published in US20110076274A1, “MATERIALS AND METHODS RELATING TO A G-PROTEIN COUPLED RECEPTOR” (priority 2008, published 2011).
Read-outs that look alike come from different tables or passages of the source.

Legend:
human osteoclasts = experiment: Cell polarisation (F-actin rings) and resorption by human osteoclasts; type: cell-based
From the text: Number of F-actin rings in osteoclast cultures, expressed as percentage of vehicle (0.1% DMSO) control±SEM (n=4-7 experiments with five replicates for each). ** P<0.01 compared to control, ANOVA with Dunnett's multiple comparison test.

MDA-MB231 subclone = experiment: Boyden chamber chemotaxis assay, Protocol I (ligand concentration gradient); type: cell-based, human; conditions: serum starved cells; test drug (1 μM per Protocol I) in 0.01% DMSO in lower wells; 4 hours
Experimental: 10 μl of the resulting cell suspension was transferred to a haemocytometer and the number of cells per ml of suspension was calculated from the counted cell number. Serum free medium was added to the cell suspension in a quantity necessary to bring the suspension to a cell number of 1×10^6 cells per ml. […]

GPR55 [1] = target: T1, GPR55 (Homo sapiens, UniProt Q9Y2T6); conditions: cited from earlier work
T1 sequence (Q9Y2T6 whole entry): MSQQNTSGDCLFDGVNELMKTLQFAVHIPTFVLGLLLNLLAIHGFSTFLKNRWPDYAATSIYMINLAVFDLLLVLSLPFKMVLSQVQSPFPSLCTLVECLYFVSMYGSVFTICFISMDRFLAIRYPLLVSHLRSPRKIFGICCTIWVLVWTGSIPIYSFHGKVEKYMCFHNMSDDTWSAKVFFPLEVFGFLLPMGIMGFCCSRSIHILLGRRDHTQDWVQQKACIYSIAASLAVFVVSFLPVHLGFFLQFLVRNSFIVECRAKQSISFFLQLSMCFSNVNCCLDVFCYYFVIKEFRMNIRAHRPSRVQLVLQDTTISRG

GPR55 [2] = target: T1, GPR55; conditions: cited from earlier work; for EC50: source per value in footnotes (Johns 2007, Ryberg 2007, Brown 2007), read-out: GTPγS EC50
CB2 [3] = target: T2, CB2 (Homo sapiens, UniProt P34972); conditions: cited from earlier work
T2 sequence (P34972 whole entry, species assumed): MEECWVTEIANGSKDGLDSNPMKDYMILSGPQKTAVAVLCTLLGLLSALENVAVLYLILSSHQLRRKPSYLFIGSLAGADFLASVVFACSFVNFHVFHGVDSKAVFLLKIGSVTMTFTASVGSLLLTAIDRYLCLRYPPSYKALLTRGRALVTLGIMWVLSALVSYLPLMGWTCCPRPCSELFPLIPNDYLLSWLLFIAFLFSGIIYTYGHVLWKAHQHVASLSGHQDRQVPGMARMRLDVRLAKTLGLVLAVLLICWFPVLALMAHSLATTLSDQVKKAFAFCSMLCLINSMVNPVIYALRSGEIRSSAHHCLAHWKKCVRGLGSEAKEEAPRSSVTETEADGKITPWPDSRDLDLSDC

MDA-MB-231 cells [4] = experiment: Cultrex Cell Invasion Assay towards FBS; type: cell-based, human; conditions: CBD 1 μM pre-incubation; 24 hours
Experimental: (§1) Cell were cultured to 80% confluence then serum starved overnight prior to beginning the assay. On ice, a 0.5×BME stock solution was prepared from the 5× stock in a conical tube and inverted to mix. 100 μl of BME stock solution was aliquoted into each well of the 24 well plate and the chamber incubated at 37° C. overnight. The following morning cells were harvested, washed once using 1× wash buffer, counted, and re-suspended to a density of 5×10^5 cells ml^−1. The top chamber was then carefully aspirated, taking care not to let chambers dry out, and 100 μl of cells per well added to the top chamber. 500 μl of media per well (with or without chemoattractant) was then added to the lower wells of the chamber. The chamber was then assembled and incubated at 37° C. in a humidified environment for 24 hours. The following day the upper chamber was carefully aspirated and washed with 100 μl of 1× wash buffer, and lower wells washed with 500 μl of wash buffer. 12 μl of Calcein-AM solution was added to 12 mL of cell dissociation fluid, and 500 μl of this solution added to the lower chamber. The chamber was then re-assembled and incubated at 37° C. for one hour. The upper chamber was then removed, and dissolved Calcein-AM was read at 485 nm excitation, 520 nm emission.

CB1 [5] = target: T3, CB1 (Homo sapiens, UniProt P21554); conditions: cited from earlier work
T3 sequence (P21554 whole entry, species assumed): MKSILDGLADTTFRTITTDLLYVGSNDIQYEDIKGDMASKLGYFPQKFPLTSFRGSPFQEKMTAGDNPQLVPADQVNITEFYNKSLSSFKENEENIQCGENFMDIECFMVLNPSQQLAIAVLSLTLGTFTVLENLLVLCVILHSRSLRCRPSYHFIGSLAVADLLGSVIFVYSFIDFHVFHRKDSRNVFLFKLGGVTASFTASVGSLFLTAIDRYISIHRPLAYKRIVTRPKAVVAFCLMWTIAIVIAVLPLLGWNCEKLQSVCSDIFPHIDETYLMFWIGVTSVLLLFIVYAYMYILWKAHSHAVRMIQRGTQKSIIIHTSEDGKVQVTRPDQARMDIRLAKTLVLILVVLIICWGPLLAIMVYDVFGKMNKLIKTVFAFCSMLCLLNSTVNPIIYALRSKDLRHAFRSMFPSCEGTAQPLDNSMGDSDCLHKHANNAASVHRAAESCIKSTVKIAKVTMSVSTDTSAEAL

[6] = test system: control (empty vector transfected) MCF7 cells; experiment: Cultrex Cell Invasion Assay, empty vector transfected MCF7; type: cell-based, human
Experimental: as §1, with “emission. […]” for “emission.”

MDA-MB231 = experiment: Boyden chamber chemotaxis assay, CBD as chemoattractant (FIG. 8); type: cell-based, human; conditions: serum starved cells; CBD with 0.01% DMSO
Experimental: (§2) Cells used for all chemotaxis assays were bathed in their respective serum-free media and incubated for 19 hours prior to experimentation. The serum starved cells were washed with 5 ml PBS and dissociated from their growth plate using 5 ml of non-enzymatic cell dissociation solution. 5 ml of the respective serum free medium was added after dissociation of the cells, and the cell suspension was transferred to a universal container and centrifuged at 2000 rpm for 5 minutes. The supernatant fluid was discarded and the remaining cell pellet was re-suspended in 2 ml of serum free medium.
(§3) 10 μl of the resulting cell suspension was transferred to a haemocytometer and the number of cells per ml of suspension was calculated from the counted cell number. Serum free medium was added to the cell suspension in a quantity necessary to bring the suspension to a cell number of 1×10^6 cells per ml.
Solutions of 10% FBS (with 0.01% DMSO vehicle), 0.01% DMSO vehicle control and 1 μM of test drug (O-1602 in 0.01% DMSO vehicle), were prepared. […]
(§4) Migrated cells were counted using a Leitz microscope. Individual wells and their borders were visualised using a 10× objective lens and cells were then counted using a 40× objective lens. Cells found in one quarter of three non-overlapping 40× fields within each migration well were counted. The same fields were chosen in every well counted. […]

MDA-MB-231 cells [7] = experiment: alamarBlue assay of cell viability; type: cell-based, human
MDA-MB231 cells = experiment: Boyden chamber migration towards FBS, Protocol II (pre-treatment of cells); type: cell-based, human; conditions: for Tumour cell chemotaxis (migration) to FBS after pre-incubation: 1 μM pre-incubation 30 minutes, 10% FBS, no compound gradient, 4 hours
Experimental: as §2, §3
(§5) Two aliquots of the 1×10^6 cells/ml, cell suspension were prepared, and quantities of 0.1% DMSO and […] (both with 0.1% DMSO vehicle) were added to one aliquot each, to bring the cell suspension concentrations to 0.01% DMSO and 1 μM test compound (with 0.01% DMSO vehicle). The cell suspensions were incubated with each compound for 30 minutes at 37° C. in 5% CO2. […]
as §4
The results for all assays done with each individual drug type were pooled by calculating the mean number of cells migrating in 0.01% DMSO vehicle control wells. The cell number for each individual well was then expressed as a percentage of the vehicle mean.

[8] = test system: GPR55 over-expressing MCF7 cells; experiment: Cultrex Cell Invasion Assay, GPR55 over-expressing MCF7; type: cell-based, human
Experimental: as §1, with “emission. […]” for “emission.”

CB1 [9] = target: T3, CB1; conditions: Ryberg et al., 2007, read-out: GTPγS EC50; cited from earlier work
CB2 [10] = target: T2, CB2; conditions: Ryberg et al., 2007, read-out: GTPγS EC50; cited from earlier work
GPR55 [11] = target: T1, GPR55; conditions: footnote of Table 1
[12] = test system: MCF7 cells transiently over-expressing GPR55; experiment: Boyden chamber chemotaxis assay, GPR55 over-expressing MCF7; type: cell-based, human; conditions: LPI pre-incubation 1 μM
Experimental: as §2, §3, §5

GPR55 [13] = target: T1, GPR55; conditions: Oka et al., 2007, read-out: ERK Phosphorylation EC50; cited from earlier work
[14] = test system: vector transfected MCF7 cells; experiment: Boyden chamber chemotaxis assay, vector transfected MCF7; type: cell-based, human; conditions: LPI pre-incubation 1 μM
Experimental: as §2, §3, §5

MG-63 cells = experiment: Endocannabinoid levels in MG-63 cells treated with PTH; type: cell-based, human
Experimental: Cells were washed in PBS and treated for 90 minutes with 200 ug/ml LPS. Values represent the mean±SEM from 3 separate donors. […] Levels of anandamide were undetectable in two control samples which precludes statistical analysis. (C) 2-AG levels in MG-63 cells treated with PTH. Cells were treated for the times indicated with 40 nM or 100 nM PTH. The results are expressed as percentage of control and are the means±SEM (n=2-4 experiments, duplicate samples for each), ** P<0.01 compared to control, ANOVA with Dunnett's multiple comparison test.

CCCCC/C=C\C/C=C\C/C=C\C/C=C\CCCC(=O)OC(CO)CO [2-AG]
Resorptive activity (human osteoclasts; 10 nM and 100 nM): significant increase
Cell polarisation i.e. number of F-actin rings (human osteoclasts; 10 nM and 100 nM, 5 days): significant increase
Stimulatory effect on polarisation and resorption at higher concentration (human osteoclasts; 1 μM): lost

CCCCC/C=C\C/C=C\C/C=C\C/C=C\CCCC(=O)NCCO [AEA, anandamide]
Cell migration compared to vehicle control (chemoattractant effect) (MDA-MB231 subclone): significant increase in cell number
F-actin ring number (human osteoclasts; 10 nM to 1 μM): did not result in a significant change
Resorption (human osteoclasts; 10 nM to 1 μM): significantly stimulate
Drug action on receptors: GPR55 (GPR55 [1]): Agonist
EC50 (GPR55 [2]): 18 nM
Drug action on receptors: CB2 (CB2 [3]): Agonist

C=C(C)[C@@H]1CCC(C)=C[C@H]1c1c(O)cc(CCCCC)cc1O [CBD, Cannabidiol]
Tumour cell invasion towards FBS after pre-incubation (MDA-MB-231 cells [4]): significantly attenuated
Drug action on receptors: CB1 (CB1 [5]): Antagonist^7
Basal invasion [6]: no effect
Tumour cell migration compared to control (chemoattractant effect) (MDA-MB231): no effect on tumour cell migration
Cytotoxic action (cell viability) (MDA-MB-231 cells [7]; 1 μM treatment for 24 hours (invasion assay)): no cytotoxic action
Cytotoxic action (cell viability) (MDA-MB-231 cells [7]; concentrations up to 10 μM, treatment for 4 hours (migration assay)): no cytotoxic action
Drug action on receptors: GPR55 (GPR55 [1]): Antagonist^2
Tumour cell chemotaxis (migration) to FBS after pre-incubation (MDA-MB231 cells): significantly inhibits
Effect on LPI-increased chemotaxis to FBS (MDA-MB231 cells; co-incubation LPI (1 μM) combined with CBD (1 μM)): prevented
FBS-induced invasion [8]: significantly inhibited
IC50 (GPR55 [2]; antagonist, Brown, 2007, read-out: GTPγS IC50): 350 nM

CCCCCCC(C)(C)c1ccc([C@@H]2C[C@H](O)CC[C@H]2CCCO)c(O)c1 [CP55940, (−)-cis-3-[2-hydroxy-4-(1,1-dimethylheptyl)phenyl]-trans-4-(3-hydroxypropyl)cyclohexanol]
Drug action on receptors: GPR55 (GPR55 [1]): agonists

CCCn1c(C)c(C(=O)c2cccc3ccccc23)c2ccccc21 [JWH015]
Drug action on receptors: GPR55 (GPR55 [1]): Agonist
EC50 (GPR55 [2]): 4 nM

C=C(C)[C@@H]1CCC(C)=C[C@H]1c1c(C)cc(O)cc1O [O-1602]
EC50 (CB1 [9]): > 30000 nM
Cell migration compared to vehicle control (chemoattractant effect) (MDA-MB231 subclone): significant increase in cell migration
Drug action on receptors: CB1 (CB1 [5]): No action^3
Drug action on receptors: GPR55 (GPR55 [1]): Agonist
EC50 (CB2 [10]): > 30000 nM
Drug action on receptors: CB2 (CB2 [3]): No action
Selectivity for GPR55 versus CB1 and CB2 (in words) (GPR55 [11]): Compounds such as O-1602 and LPI are therefore thought to be relatively selective GPR55 agonists, whilst AEA has a broad specificity.

CCCCCc1cc(O)c2c(c1)OC(C)(C)[C@@H]1CCC(C)=C[C@@H]21 [THC, Δ-9-Tetrahydrocannabinol]
Drug action on receptors: GPR55 (GPR55 [1]): agonists

lysophosphatidylinositol [LPI]
FBS-induced migration [12]: enhanced
EC50 (GPR55 [13]): ~200 nM
Drug action on receptors: GPR55 (GPR55 [1]): Agonist^6
Tumour cell chemotaxis (migration) to FBS after pre-incubation (MDA-MB231 cells): significantly increases
Migration towards FBS [14]: unaffected
Selectivity for GPR55 versus CB1 and CB2 (in words) (GPR55 [11]): Compounds such as O-1602 and LPI are therefore thought to be relatively selective GPR55 agonists, whilst AEA has a broad specificity.

B1: PTH: PTH, 40 nM or 100 nM, activates the PTH receptor (peptide, UniProt P01270 32-115, looked up)
Parathyroid hormone: SVSEIQLMHNLGKHLNSMERVEWLRKKLQDVHNFVALGAPLAPRDAGSQRPRKKEDNVLVESHEKSLGEADKADVNVLTKAKSQ
modifications: Parathyroid hormone
Levels of 2-AG detected in MG-63 cells (MG-63 cells; prolonged treatment with 40 nM or 100 nM PTH): significant increase
Levels of anandamide detected in MG-63 cells (MG-63 cells; prolonged treatment with PTH, data not shown): no change
